From patent publication US8753570B2, “Structure, synthesis, and applications for oligo phenylene ethynylenes” (STC.UNM, priority 2008, dated 2014)

Test system: Bacillus atrophaeus
Test: Dark and uv biocidal activity
Assay type: cell-based

C[N+](C)(C)CCCOc1ccc(C#Cc2ccc(C#Cc3ccc(OCCC[N+](C)(C)C)cc3)cc2)cc1 [S-OPE-EO]
killing under uv (365 nm uv light, 30 minutes): almost the same level killing | killing in the dark (dark, 6 hour exposure): several log kills | biocidal activity (in the dark and upon uv irradiation): remarkable biocidal activity
